Measured values from PubChem BioAssay AID248 (DTP/NCI, 2004).
Several values for one entry are separate records, joined by “and”; a condition that tells them apart may be missing. Identical values can stand only once. Toxic doses and inconclusive results are not listed.

System: L1210 leukemia ip in BDF1 mice, survival T/C
Test: NCI In Vivo Anticancer Drug Screen. Data for tumor model L1210 Leukemia (intraperitoneal) in B6D2F1 (BDF1) mice
Conditions: endpoint: mean survival time, higher = longer survival
Outline: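 Transplanted-tumor mice were given test agent; controls received vehicle only. Survival readings from the two groups were divided (treated over control).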

[1] = dose: 50.0 mg/kg/injection, schedule: Q01DX001 (ip), vehicle: carboxymethylcellulose (CMC)
[2] = dose: 100.0 mg/kg/injection, schedule: Q01DX001 (ip), vehicle: carboxymethylcellulose (CMC)
[3] = dose: 200.0 mg/kg/injection, schedule: Q01DX001 (ip), vehicle: carboxymethylcellulose (CMC)
[4] = dose: 400.0 mg/kg/injection, schedule: Q01DX001 (ip), vehicle: carboxymethylcellulose (CMC)
[5] = dose: 25.0 mg/kg/injection, schedule: Q04DX003 (ip), vehicle: saline
[6] = dose: 50.0 mg/kg/injection, schedule: Q04DX003 (ip), vehicle: saline
[7] = dose: 100.0 mg/kg/injection, schedule: Q01DX001 (ip), vehicle: saline
[8] = dose: 200.0 mg/kg/injection, schedule: Q01DX001 (ip), vehicle: saline
[9] = dose: 400.0 mg/kg/injection, schedule: Q01DX001 (ip), vehicle: saline
[10] = dose: 12.5 mg/kg/injection, schedule: Q01DX009 (ip), vehicle: Klucel (hydroxypropylcellulose) (HPC)
[11] = dose: 25.0 mg/kg/injection, schedule: Q01DX009 (ip), vehicle: Klucel (hydroxypropylcellulose) (HPC)
[12] = dose: 50.0 mg/kg/injection, schedule: Q01DX009 (ip), vehicle: Klucel (hydroxypropylcellulose) (HPC)
[13] = dose: 100.0 mg/kg/injection, schedule: Q01DX009 (ip), vehicle: saline with Tween-80
[14] = dose: 200.0 mg/kg/injection, schedule: Q01DX009 (ip), vehicle: saline with Tween-80

CC1(C)CC(=O)C2C(C1)Nc1ccccc1NC2c1ccccc1[N+](=O)[O-] (stereo not drawn)
T/C (dose: 100.0 mg/kg/injection, schedule: Q04DX002 (ip), vehicle: Klucel (hydroxypropylcellulose) (HPC)): 103 % of control and 110 % of control | T/C (dose: 200.0 mg/kg/injection, schedule: Q04DX002 (ip), vehicle: Klucel (hydroxypropylcellulose) (HPC)): 98 % of control and 92 % of control | T/C (dose: 400.0 mg/kg/injection, schedule: Q04DX002 (ip), vehicle: Klucel (hydroxypropylcellulose) (HPC)): 95 % of control

CCCCn1cnc2c(=S)nc[nH]c21
T/C (dose: 5.0 mg/kg/injection, schedule: Q01DX Z (ip), vehicle: carboxymethylcellulose (CMC)): 98 % of control | T/C (dose: 8.0 mg/kg/injection, schedule: Q01DX Z (ip), vehicle: carboxymethylcellulose (CMC)): 103 % of control | T/C (dose: 10.0 mg/kg/injection, schedule: Q01DX Z (ip), vehicle: carboxymethylcellulose (CMC)): 102 % of control | T/C (dose: 16.0 mg/kg/injection, schedule: Q01DX Z (ip), vehicle: carboxymethylcellulose (CMC)): 103 % of control | T/C (dose: 16.0 mg/kg/injection, schedule: Q01DX Z (ip), vehicle: saline): 94 % of control | T/C (dose: 16.0 mg/kg/injection, schedule: Q01DX Z (oral), vehicle: carboxymethylcellulose (CMC)): 109 % of control | T/C (dose: 20.0 mg/kg/injection, schedule: Q01DX Z (ip), vehicle: carboxymethylcellulose (CMC)): 104 % of control | T/C (dose: 32.0 mg/kg/injection, schedule: Q01DX009 (ip), vehicle: saline): 101 % of control | T/C (dose: 32.0 mg/kg/injection, schedule: Q01DX Z (ip), vehicle: carboxymethylcellulose (CMC)): 120 % of control | T/C (dose: 32.0 mg/kg/injection, schedule: Q01DX Z (ip), vehicle: saline): 97 % of control | T/C (dose: 32.0 mg/kg/injection, schedule: Q01DX Z (oral), vehicle: carboxymethylcellulose (CMC)): 112 % of control | T/C (dose: 40.0 mg/kg/injection, schedule: Q01DX Z (ip), vehicle: carboxymethylcellulose (CMC)): 112 % of control | T/C (dose: 64.0 mg/kg/injection, schedule: Q01DX009 (ip), vehicle: saline): 115 % of control and 121 % of control | T/C (dose: 64.0 mg/kg/injection, schedule: Q01DX Z (ip), vehicle: saline): 123 % of control | T/C (dose: 64.0 mg/kg/injection, schedule: Q01DX Z (oral), vehicle: carboxymethylcellulose (CMC)): 117 % of control | T/C (dose: 86.0 mg/kg/injection, schedule: Q02DX010 (ip), vehicle: carboxymethylcellulose (CMC)): 117 % of control | T/C (dose: 88.0 mg/kg/injection, schedule: Q02DX010 (ip), vehicle: carboxymethylcellulose (CMC)): 116 % of control | T/C (dose: 100.0 mg/kg/injection, schedule: Q01DX015 (ip), vehicle: carboxymethylcellulose (CMC)): 178 % of control | T/C (dose: 160.0 mg/kg/injection, schedule: Q01DX015 (ip), vehicle: carboxymethylcellulose (CMC)): 152 % of control | T/C (dose: 225.0 mg/kg/injection, schedule: Q01DX015 (ip), vehicle: carboxymethylcellulose (CMC)): 124 % of control | T/C (dose: 240.0 mg/kg/injection, schedule: Q01DX015 (ip), vehicle: carboxymethylcellulose (CMC)): 116 % of control | T/C (dose: 256.0 mg/kg/injection, schedule: Q01DX009 (ip), vehicle: saline): 121 % of control | T/C (dose: 256.0 mg/kg/injection, schedule: Q01DX Z (ip), vehicle: saline): 100 % of control | T/C (dose: 320.0 mg/kg/injection, schedule: Q01DX015 (ip), vehicle: carboxymethylcellulose (CMC)): 92 % of control | T/C (dose: 335.0 mg/kg/injection, schedule: Q01DX015 (ip), vehicle: carboxymethylcellulose (CMC)): 98 % of control

CCc1ccc(NC2=C(OC)C(=O)C(Nc3ccc(CC)cc3)=C(OC)C2=O)cc1
T/C [1]: 98 % of control | T/C [2]: 93 % of control | T/C [3]: 98 % of control | T/C [4]: 90 % of control

Cn1c(CN(CCCl)CCCl)nc2c1c(=O)[nH]c(=O)n2C
T/C [1]: 108 % of control | T/C [2]: 102 % of control | T/C (dose: 178.0 mg/kg/injection, schedule: Q01DX001 (ip), vehicle: carboxymethylcellulose (CMC)): 109 % of control | T/C [3]: 119 % of control | T/C (dose: 267.0 mg/kg/injection, schedule: Q01DX001 (ip), vehicle: carboxymethylcellulose (CMC)): 111 % of control and 116 % of control | T/C [4]: 93 % of control | T/C (dose: 600.0 mg/kg/injection, schedule: Q01DX001 (ip), vehicle: carboxymethylcellulose (CMC)): 90 % of control

Nc1ncnc2[nH]c(=O)[nH]c12
T/C [5]: 105 % of control | T/C [6]: 102 % of control | T/C (dose: 100.0 mg/kg/injection, schedule: Q04DX003 (ip), vehicle: saline): 98 % of control

COC1OCC(O)C(O)C1OS(C)(=O)=O (stereo not drawn)
T/C [7]: 110 % of control | T/C [8]: 101 % of control | T/C [9]: 104 % of control

CC(Cc1ccccc1)NC(C#N)c1ccccc1 (stereo not drawn)
T/C [10]: 107 % of control | T/C [11]: 88 % of control | T/C (dose: 25.0 mg/kg/injection, schedule: Q04DX003 (ip), vehicle: Klucel (hydroxypropylcellulose) (HPC)): 98 % of control | T/C (dose: 25.0 mg/kg/injection, schedule: Q04DX003 (ip), vehicle: saline with Tween-80): 97 % of control | T/C [12]: 91 % of control | T/C (dose: 50.0 mg/kg/injection, schedule: Q04DX003 (ip), vehicle: Klucel (hydroxypropylcellulose) (HPC)): 109 % of control | T/C (dose: 50.0 mg/kg/injection, schedule: Q04DX003 (ip), vehicle: saline with Tween-80): 100 % of control | T/C (dose: 100.0 mg/kg/injection, schedule: Q01DX009 (ip), vehicle: Klucel (hydroxypropylcellulose) (HPC)): 96 % of control | T/C (dose: 100.0 mg/kg/injection, schedule: Q04DX003 (ip), vehicle: Klucel (hydroxypropylcellulose) (HPC)): 109 % of control | T/C (dose: 100.0 mg/kg/injection, schedule: Q04DX003 (ip), vehicle: saline with Tween-80): 92 % of control | T/C (dose: 200.0 mg/kg/injection, schedule: Q04DX003 (ip), vehicle: Klucel (hydroxypropylcellulose) (HPC)): 101 % of control

CC(=O)OC1COC(n2cnc3c(=O)[nH]cnc32)C(OC(C)=O)C1OC(C)=O (stereo not drawn)
T/C (dose: 50.0 mg/kg/injection, schedule: Q01DX001 (ip), vehicle: saline): 97 % of control | T/C [7]: 97 % of control and 115 % of control and 101 % of control | T/C [8]: 86 % of control and 109 % of control and 103 % of control | T/C [9]: 95 % of control

COc1ccc2c(c1)CC(=CO)CC2=O.COc1ccc2c(c1)CC/C(=C/O)C2=O.[Cu]
T/C [13]: 98 % of control | T/C (dose: 100.0 mg/kg/injection, schedule: Q04DX003 (ip), vehicle: saline sonified): 101 % of control | T/C [14]: 110 % of control | T/C (dose: 200.0 mg/kg/injection, schedule: Q04DX003 (ip), vehicle: saline sonified): 90 % of control | T/C (dose: 400.0 mg/kg/injection, schedule: Q04DX003 (ip), vehicle: saline sonified): 104 % of control

C=CC[P+](Cc1cccc(OC)c1)(c1ccccc1)c1ccccc1
T/C (dose: 6.25 mg/kg/injection, schedule: Q04DX003 (ip), vehicle: saline): 98 % of control | T/C (dose: 12.5 mg/kg/injection, schedule: Q04DX003 (ip), vehicle: saline): 98 % of control | T/C [5]: 98 % of control | T/C [6]: 93 % of control

CCCCCCCCCCC1CCC(CCCCCCCCCC)CC1 (stereo not drawn)
T/C (dose: 100.0 mg/kg/injection, schedule: Q01DX001 (ip), vehicle: other): 106 % of control | T/C (dose: 200.0 mg/kg/injection, schedule: Q01DX001 (ip), vehicle: other): 107 % of control | T/C (dose: 400.0 mg/kg/injection, schedule: Q01DX001 (ip), vehicle: other): 91 % of control

CN(C)c1ccc(/C=N/NC(=O)Cc2cccc3ccccc23)cc1
T/C [13]: 90 % of control | T/C [14]: 86 % of control | T/C (dose: 400.0 mg/kg/injection, schedule: Q01DX009 (ip), vehicle: saline with Tween-80): 86 % of control

CC1=NN(c2ccccc2)C(=O)C1N=Nc1ccc(S(=O)(=O)Nc2occ(C)c2C)cc1 (stereo not drawn)
T/C [2]: 90 % of control | T/C [3]: 90 % of control | T/C [4]: 93 % of control

CC(C)=CCC(N)CC=C(C)C
T/C [10]: 91 % of control | T/C [11]: 102 % of control | T/C (dose: 25.0 mg/kg/injection, schedule: Q04DX002 (ip), vehicle: Klucel (hydroxypropylcellulose) (HPC)): 112 % of control | T/C [12]: 106 % of control | T/C (dose: 50.0 mg/kg/injection, schedule: Q04DX002 (ip), vehicle: Klucel (hydroxypropylcellulose) (HPC)): 105 % of control
